Like-named read-outs stand apart in the source and are kept apart here. Some results are limits rather than exact numbers.

Results on 4 compounds are retold here after patent US9562021B2, “Histone deacetylase inhibitors and compositions and methods of use thereof” (CHDI Foundation, Inc., priority 2013, dated 2017).

In data set [1] the target is T1, HDAC4 (Homo sapiens, UniProt P56524). Kind of data set: HDAC4 (bioch) IC50. The settings on record: Table 3; read-out: IC50 μM (bioch). Format: biochemical.
Data set [2] deals with T1, HDAC4. Kind of data set: HDAC4 (cell) IC50. The data set is classed as cell-based. Conditions: Table 3.
A short description of data set [3]: MDCK apparent permeability (Papp A>B). Conditions: dog, pH 7.4. The data set is classed as in vitro ADME.
A short description of data set [4]: Hepatic microsomal stability, mouse. Format: in vitro ADME. The settings on record: mouse liver microsomes. (In general: Liver microsomes are a subcellular fraction often used to study metabolism.)
The nature of data set [5]: PK study (iv and po 10 mg/kg), plasma, brain and muscle. Conditions: for clearance: read-out: Clearance (CLp) (converted); for Vd: read-out: Volume of Distribution at Steady State (Vdss). The data set is classed as in vivo.
Data set [6] deals with cellular histone deacetylase activity in Jurkat E6-1 cells. Kind of data set: Inhibition of cellular HDAC activity, Boc-Lys(Tfa)-AMC substrate. The data set is classed as cell-based. The settings on record: Homo sapiens, Class IIa selective substrate. From the text:
The potency of exemplifying compounds described herein is quantified by measuring the cellular histone deacetylase enzymatic activity using the Class IIa selective substrate, Boc-Lys(Tfa)-AMC. After penetration in Jurkat E6-1 cells, the substrate is deacetylated to Boc-Lys-AMC. After cell lysis and cleavage by trypsin, the fluorophore AMC is released from the deacetylated substrate only. The fluoresence of the sample is directly related to the histone deacetylase activity in the sample.
Jurkat E6.1 Cell Culture and Plating. Jurkat E6.1 cells are cultured according to standard cell culture protocols in Jurkat E6.1 Growth Media (RPMI without phenol red, 10% FBS, 10 mM HEPES, and 1 mM Sodium Pyruvate). Jurkat E6.1 cells are counted using a Coulter Counter and resuspended in Jurkat E6.1 growth media at a concentration of 75,000 cells/35 μL. 35 μL or 75,000 cells is seeded into Greiner microtitre assay plates. The plates are then incubated at 37° C. and 5% CO2 while other assay components are being prepared.
Serially Dilute HDAC Inhibitor Compounds. […]
Assay. […] Finally the top read fluorescence (Excitation: 355 nm, Emission: 460 nm) is measured using PerkinElmer EnVision.

For another data set, the system named is Boc-Lys(Ac). Kind of data set: Boc-Lys(Ac) IC50. The data set is classed as cell-based.
[7] abbreviates: 5 mg eq./Kg, IV PK, brain, read-out: Brain-plasma.
Where [8] appears, read: 5 mg eq./Kg, IV PK, muscle section, read-out: Brain-plasma.
Setting [9] is: 10 mg/Kg, Oral PK, brain, read-out: Brain-plasma.
[10] abbreviates: 10 mg/Kg, Oral PK, muscle, read-out: Muscle-plasma.

T1 sequence (P56524 whole entry): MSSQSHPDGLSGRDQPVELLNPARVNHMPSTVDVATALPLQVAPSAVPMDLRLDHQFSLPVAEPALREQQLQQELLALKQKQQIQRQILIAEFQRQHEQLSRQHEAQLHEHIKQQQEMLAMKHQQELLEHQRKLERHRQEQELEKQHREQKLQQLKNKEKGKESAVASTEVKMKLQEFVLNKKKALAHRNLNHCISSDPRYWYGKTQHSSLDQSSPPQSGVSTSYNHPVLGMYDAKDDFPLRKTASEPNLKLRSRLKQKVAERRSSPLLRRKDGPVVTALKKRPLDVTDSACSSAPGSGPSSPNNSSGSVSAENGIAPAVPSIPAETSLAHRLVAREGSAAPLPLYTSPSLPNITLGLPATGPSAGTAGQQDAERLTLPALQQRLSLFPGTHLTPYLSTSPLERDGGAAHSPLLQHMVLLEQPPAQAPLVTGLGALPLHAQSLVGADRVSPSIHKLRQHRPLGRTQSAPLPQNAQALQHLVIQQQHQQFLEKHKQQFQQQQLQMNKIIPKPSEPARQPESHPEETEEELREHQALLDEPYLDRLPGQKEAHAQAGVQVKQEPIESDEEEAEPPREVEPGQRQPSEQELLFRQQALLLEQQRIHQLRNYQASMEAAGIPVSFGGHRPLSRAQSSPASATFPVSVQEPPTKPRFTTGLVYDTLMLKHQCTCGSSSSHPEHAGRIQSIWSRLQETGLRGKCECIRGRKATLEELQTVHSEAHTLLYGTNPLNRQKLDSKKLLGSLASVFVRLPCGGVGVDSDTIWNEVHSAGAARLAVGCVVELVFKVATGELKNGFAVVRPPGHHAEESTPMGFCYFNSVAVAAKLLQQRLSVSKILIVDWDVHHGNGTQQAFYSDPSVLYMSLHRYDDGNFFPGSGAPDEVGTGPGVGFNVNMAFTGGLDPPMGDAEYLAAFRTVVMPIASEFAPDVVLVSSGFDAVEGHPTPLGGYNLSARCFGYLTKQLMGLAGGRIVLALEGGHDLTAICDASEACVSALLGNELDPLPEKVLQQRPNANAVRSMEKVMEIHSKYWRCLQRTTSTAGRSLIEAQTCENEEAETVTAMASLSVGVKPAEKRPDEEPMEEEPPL

On to `O=C(NO)C(c1ccccc1)c1ccc(-c2cncnc2)cc1` (stereo not shown) [drawing 19], for which the IC50 (as a rule, the midpoint of a concentration-inhibition curve) on HDAC4 [1] is 0.09 µM; against HDAC4 [2] it was 0.55 µM. For the same compound, the apparent permeability from apical to basolateral (Papp A→B) – broadly, the apparent permeability from the apical to the basolateral side of a cell layer – at 1 h, 10 μM in data set [3] is 17.5 ×10⁻⁶ cm/s. The same compound returned an MLM in data set [4] of 77 mL/min/kg BW. Also, the half-life (commonly the time in which the quantity being followed falls by half) is 2.2 h in data set [5] (5 mg eq./Kg, IV PK, brain); 4 h in data set [5] (5 mg eq./Kg, IV PK, muscle); 1.8 h in data set [5] (5 mg eq./Kg, IV PK, plasma); 2.7 h in data set [5] (10 mg/Kg, Oral PK, brain); 4 h in data set [5] (10 mg/Kg, Oral PK, muscle); 1.9 h in data set [5] (10 mg/Kg, Oral PK, plasma). Also, the Kp was 0.12 to 2 in data set [5] (setting [7]), 1.1 to 8.9 in data set [5] (setting [8]), 0.15 to 1.4 in data set [5] (setting [9]) and 1 to 8 in data set [5] (setting [10]). In addition, the clearance in data set [5] (5 mg eq./Kg, IV PK, plasma) is 107 mL/min/kg. The Vd in data set [5] (5 mg eq./Kg, IV PK, plasma) came to 2.6 L/kg. Moreover, the AUCnorm was 162 nM·kg·h/mg in data set [5] (IV PK, brain); 835 nM·kg·h/mg in data set [5] (IV PK, muscle); 516 nM·kg·h/mg in data set [5] (IV PK, plasma); 58 nM·kg·h/mg in data set [5] (Oral PK, brain); 306 nM·kg·h/mg in data set [5] (Oral PK, muscle); 179 nM·kg·h/mg in data set [5] (Oral PK, plasma). In data set [5] (Oral PK, plasma), this compound displayed a Bioavaiability of 35%. In data set [5] (Oral PK, plasma), the “Observed CmaxNorm” value was 257 nM·kg/mg.
As to `O=C(NO)C(c1ccc(N2CCOCC2)cc1)c1ccccc1F` (stereo not shown), the IC50 at HDAC4 [1] amounted to 0.07 µM; on HDAC4 [2], 0.64 µM. Also, the Papp A→B at 1 h, 10 μM in data set [3] amounted to 23.4 ×10⁻⁶ cm/s. Moreover, the MLM in data set [4] came to 93 mL/min/kg BW. Also, the half-life is 3.3 h in data set [5] (5 mg eq./Kg, IV PK, brain); 4.8 h in data set [5] (5 mg eq./Kg, IV PK, muscle); 1.8 h in data set [5] (5 mg eq./Kg, IV PK, plasma). For the same compound, the Kp in data set [5] (setting [7]) fell in the range of 0.54 to 8.9; in data set [5] (setting [8]) it was 1.9 to 21; in data set [5] (setting [9]), 0.67 to 3.4; in data set [5] (setting [10]) it was 1.5 to 5.2. The clearance in data set [5] (5 mg eq./Kg, IV PK, plasma) is 123 mL/min/kg. In addition, in data set [5] (5 mg eq./Kg, IV PK, plasma), the Vd came out at 3.1 L/kg. The AUCnorm in data set [5] (IV PK, brain) turned out to be 511 nM·kg·h/mg; in data set [5] (IV PK, muscle), 1048 nM·kg·h/mg; in data set [5] (IV PK, plasma) it was 409 nM·kg·h/mg; in data set [5] (Oral PK, brain), 151 nM·kg·h/mg; in data set [5] (Oral PK, muscle), 260 nM·kg·h/mg; in data set [5] (Oral PK, plasma) it was 109 nM·kg·h/mg. The compound also had a Bioavaiability in data set [5] (Oral PK, plasma) of 27%. Also, in data set [5] (Oral PK, plasma), the “Observed CmaxNorm” value came out at 95 nM·kg/mg.
In the case of `Cc1ncc(-c2ccc(C(C(=O)NO)c3ccccc3F)cc2)cn1` (stereo not shown) [Compound 6, 2-(2-fluorophenyl)-N-hydroxy-2-(4-(2-methylpyrimidin-5-yl)phenyl)acetamide], the IC50 is 120 nM in data set [6] and greater than 50000 nM in the data set on Boc-Lys(Ac).
As for `O=C(NO)C(c1ccc(-c2ncc(C(F)(F)F)cn2)cc1)c1ccccc1F` (stereo not shown) [Compound 8, 2-(2-fluorophenyl)-N-hydroxy-2-(4-(5-(trifluoromethyl)pyrimidin-2-yl)phenyl)acetamide], the figures for the IC50 (in data set [6]; in the data set on Boc-Lys(Ac)) were 59 nM and greater than 50000 nM, respectively.
